# Laboratory results as given in article PMC8617627, “Novel DYRK1A Inhibitor Rescues Learning and Memory Deficits in a Mouse Model of Down Syndrome” (Pharmaceuticals, 2021).
# Like-named read-outs stand apart in the source and are kept apart here.
# Tests used:
# Assay in all cases: Kinase profile (33P ATP filter binding)
# Format in all cases: biochemical
# CK1γ2 = CK1γ2 (Homo sapiens, UniProt P78368)
# Description: (§1) The compounds were diluted to the appropriate concentration. The compounds were added to a “mother plate” consisting of samples, controls, and blanks. These serve as the source for “daughter plates” which are stored at −20 °C until assay initiation. Protein Kinases: Enzyme/Substrate mixture was added to the compound, and the compounds were incubated for five minutes at room temperature (RT). ^33P ATP was added to the compounds to initiate the assay. Orthophosphoric acid was added to the compounds to halt the assay. Assay components were harvested onto P81 filter plates, filter plates were air-dried, scintillation fluid was added to plates, and counts were read on a Topcount NXT. A mean percentage activity was calculated.
# JNK3 = JNK3 (Homo sapiens, UniProt P53779)
# Sequence of JNK3 (P53779 whole entry, species assumed): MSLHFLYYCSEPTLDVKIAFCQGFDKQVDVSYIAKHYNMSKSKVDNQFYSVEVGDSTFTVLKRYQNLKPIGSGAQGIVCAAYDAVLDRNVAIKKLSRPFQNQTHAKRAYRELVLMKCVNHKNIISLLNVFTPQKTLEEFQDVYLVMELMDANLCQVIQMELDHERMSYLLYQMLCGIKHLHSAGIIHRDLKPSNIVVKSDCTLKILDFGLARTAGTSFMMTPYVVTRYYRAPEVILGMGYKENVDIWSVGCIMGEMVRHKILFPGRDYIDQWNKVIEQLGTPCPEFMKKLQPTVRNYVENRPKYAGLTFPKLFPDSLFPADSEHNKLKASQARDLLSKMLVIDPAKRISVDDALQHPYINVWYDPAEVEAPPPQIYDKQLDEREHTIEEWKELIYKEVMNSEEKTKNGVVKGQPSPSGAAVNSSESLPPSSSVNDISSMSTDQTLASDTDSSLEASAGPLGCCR
# Description: as §1
# ERK2 = ERK2 (Homo sapiens, UniProt P28482); conditions: read-out: Remaining protein kinase activity
# Sequence of ERK2 (P28482 whole entry, species assumed): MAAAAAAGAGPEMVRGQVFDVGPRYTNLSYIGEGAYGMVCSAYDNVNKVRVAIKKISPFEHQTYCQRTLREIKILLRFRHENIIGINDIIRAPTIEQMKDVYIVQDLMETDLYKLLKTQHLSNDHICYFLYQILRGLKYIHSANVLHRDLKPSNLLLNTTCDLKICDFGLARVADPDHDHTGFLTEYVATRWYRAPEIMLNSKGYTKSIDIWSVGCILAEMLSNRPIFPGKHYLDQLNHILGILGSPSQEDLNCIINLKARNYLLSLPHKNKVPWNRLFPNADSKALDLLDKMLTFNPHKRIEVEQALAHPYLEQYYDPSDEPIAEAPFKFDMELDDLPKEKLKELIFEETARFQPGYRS
# Description: as §1
# ULK2 = target: T1, ULK2 (Homo sapiens, UniProt Q8IYT8); conditions: read-out: Remaining protein kinase activity
# T1 sequence (Q8IYT8 1-1036): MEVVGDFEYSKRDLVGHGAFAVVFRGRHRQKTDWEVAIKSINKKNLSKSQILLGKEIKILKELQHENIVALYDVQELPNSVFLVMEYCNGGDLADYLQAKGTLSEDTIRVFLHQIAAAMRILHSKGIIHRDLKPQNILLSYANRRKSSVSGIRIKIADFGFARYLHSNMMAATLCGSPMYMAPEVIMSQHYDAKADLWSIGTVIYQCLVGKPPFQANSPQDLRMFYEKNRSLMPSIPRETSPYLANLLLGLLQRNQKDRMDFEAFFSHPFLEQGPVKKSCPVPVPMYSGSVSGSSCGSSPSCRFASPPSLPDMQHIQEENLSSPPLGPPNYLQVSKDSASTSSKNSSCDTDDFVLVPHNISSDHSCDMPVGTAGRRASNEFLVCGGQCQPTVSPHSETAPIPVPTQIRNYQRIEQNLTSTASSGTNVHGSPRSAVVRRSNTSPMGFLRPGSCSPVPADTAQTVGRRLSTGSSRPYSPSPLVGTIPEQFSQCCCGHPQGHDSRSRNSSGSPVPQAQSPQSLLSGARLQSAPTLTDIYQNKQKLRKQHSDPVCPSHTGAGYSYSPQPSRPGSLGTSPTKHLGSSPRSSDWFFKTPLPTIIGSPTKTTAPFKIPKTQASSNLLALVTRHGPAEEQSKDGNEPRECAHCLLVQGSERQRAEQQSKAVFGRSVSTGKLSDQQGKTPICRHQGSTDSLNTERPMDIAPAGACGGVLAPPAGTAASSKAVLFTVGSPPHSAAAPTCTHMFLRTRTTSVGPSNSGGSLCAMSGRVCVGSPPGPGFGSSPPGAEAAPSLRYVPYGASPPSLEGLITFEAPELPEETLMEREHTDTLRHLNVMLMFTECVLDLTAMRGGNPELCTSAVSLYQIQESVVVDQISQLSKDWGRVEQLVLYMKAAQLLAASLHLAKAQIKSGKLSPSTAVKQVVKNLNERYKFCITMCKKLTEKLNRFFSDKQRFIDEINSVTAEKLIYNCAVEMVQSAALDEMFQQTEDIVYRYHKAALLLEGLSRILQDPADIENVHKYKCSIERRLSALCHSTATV
# Description: as §1
# PRK2 = PRK2 (Homo sapiens, UniProt Q16513); conditions: read-out: Remaining protein kinase activity
# Sequence of PRK2 (Q16513 whole entry, species assumed): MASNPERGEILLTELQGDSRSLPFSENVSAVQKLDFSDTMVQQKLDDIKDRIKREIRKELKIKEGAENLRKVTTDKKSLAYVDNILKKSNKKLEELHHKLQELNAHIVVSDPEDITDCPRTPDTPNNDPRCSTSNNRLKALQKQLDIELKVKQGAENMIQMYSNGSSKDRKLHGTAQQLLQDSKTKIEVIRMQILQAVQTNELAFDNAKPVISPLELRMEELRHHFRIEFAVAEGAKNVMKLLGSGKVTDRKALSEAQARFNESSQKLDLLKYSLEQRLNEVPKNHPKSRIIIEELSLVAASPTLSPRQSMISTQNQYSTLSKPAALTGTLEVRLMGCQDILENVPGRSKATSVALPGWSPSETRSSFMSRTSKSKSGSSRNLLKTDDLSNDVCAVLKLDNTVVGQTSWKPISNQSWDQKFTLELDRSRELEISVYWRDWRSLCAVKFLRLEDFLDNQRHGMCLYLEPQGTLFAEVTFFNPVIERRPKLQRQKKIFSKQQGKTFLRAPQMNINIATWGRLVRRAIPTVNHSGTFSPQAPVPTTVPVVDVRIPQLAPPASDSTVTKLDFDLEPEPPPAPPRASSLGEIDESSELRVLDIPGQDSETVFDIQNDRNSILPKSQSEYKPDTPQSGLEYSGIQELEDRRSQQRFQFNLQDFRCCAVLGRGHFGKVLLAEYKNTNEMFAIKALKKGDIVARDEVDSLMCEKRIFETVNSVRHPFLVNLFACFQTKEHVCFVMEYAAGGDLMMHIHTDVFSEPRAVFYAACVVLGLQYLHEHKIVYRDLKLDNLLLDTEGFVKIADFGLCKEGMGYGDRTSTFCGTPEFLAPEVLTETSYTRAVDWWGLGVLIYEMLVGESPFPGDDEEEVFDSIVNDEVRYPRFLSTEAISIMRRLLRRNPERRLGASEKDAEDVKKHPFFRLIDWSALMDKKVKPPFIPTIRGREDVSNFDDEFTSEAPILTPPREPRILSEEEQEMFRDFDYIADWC
# Description: as §1
# ASK1 = target: T2, ASK1 (Homo sapiens, UniProt Q99683); conditions: read-out: Remaining protein kinase activity
# T2 sequence (Q99683 1-1374): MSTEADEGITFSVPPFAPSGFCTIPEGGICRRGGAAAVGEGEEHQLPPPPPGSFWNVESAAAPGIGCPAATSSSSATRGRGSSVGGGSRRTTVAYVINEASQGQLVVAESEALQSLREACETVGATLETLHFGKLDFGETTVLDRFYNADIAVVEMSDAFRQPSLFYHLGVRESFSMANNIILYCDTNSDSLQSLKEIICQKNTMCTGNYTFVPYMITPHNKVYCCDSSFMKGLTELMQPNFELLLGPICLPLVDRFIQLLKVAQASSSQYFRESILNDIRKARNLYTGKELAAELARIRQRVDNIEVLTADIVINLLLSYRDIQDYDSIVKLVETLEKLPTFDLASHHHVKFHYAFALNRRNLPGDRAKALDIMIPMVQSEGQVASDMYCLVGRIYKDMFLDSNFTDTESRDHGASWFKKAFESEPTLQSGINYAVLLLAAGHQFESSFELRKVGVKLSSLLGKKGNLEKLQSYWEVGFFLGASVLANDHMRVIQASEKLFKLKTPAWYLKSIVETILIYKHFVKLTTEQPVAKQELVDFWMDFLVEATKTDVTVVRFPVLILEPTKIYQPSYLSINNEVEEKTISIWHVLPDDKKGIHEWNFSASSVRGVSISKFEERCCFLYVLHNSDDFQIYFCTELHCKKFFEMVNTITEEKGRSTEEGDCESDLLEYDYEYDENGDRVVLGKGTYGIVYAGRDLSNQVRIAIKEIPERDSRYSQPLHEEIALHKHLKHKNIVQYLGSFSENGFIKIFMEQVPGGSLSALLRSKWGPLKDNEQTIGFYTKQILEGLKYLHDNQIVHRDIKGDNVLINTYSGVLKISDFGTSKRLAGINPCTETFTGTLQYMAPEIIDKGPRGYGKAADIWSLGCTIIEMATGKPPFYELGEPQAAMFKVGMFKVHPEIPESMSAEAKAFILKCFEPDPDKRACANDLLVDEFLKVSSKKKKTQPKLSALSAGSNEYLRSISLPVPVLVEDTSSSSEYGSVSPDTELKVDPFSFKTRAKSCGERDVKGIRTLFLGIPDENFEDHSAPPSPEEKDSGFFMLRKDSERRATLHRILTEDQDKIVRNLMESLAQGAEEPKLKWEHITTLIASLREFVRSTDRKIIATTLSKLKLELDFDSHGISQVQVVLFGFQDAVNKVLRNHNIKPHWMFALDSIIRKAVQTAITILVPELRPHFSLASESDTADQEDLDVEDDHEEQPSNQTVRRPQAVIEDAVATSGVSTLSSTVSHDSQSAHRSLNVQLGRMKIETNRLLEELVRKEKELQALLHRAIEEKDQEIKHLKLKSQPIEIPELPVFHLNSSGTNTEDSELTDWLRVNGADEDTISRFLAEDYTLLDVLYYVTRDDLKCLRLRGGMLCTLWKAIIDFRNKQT
# Description: as §1
# Sequence of CK1γ2 (P78368 whole entry): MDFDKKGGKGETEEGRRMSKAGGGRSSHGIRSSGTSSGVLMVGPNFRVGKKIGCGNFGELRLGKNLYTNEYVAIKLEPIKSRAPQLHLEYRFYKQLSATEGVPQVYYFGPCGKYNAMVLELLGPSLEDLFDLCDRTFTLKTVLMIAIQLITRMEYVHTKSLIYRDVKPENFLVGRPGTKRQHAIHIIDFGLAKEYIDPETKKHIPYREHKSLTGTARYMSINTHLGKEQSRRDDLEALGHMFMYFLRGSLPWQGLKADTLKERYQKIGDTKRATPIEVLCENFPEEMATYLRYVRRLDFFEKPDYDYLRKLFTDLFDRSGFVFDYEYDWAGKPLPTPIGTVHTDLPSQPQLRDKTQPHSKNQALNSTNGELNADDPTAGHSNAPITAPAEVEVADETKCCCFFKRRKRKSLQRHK
structure (smiles),measurement,setting,value
"COc1ccc2sc(-c3cncc(NC(C)=O)c3)nc2c1 [PST-001, N-(5-(5-Methoxybenzo[d]thiazol-2-yl)pyridin-3-yl)acetamide]",Remaining protein kinase activity,CK1γ2; 1 μM,114%
same,Remaining protein kinase activity,CK1γ2; 100 μM,101%
same,Remaining protein kinase activity,JNK3; 1 μM,127%
same,Remaining protein kinase activity,JNK3; 100 μM,122%
same,remaining activity at 1 µM,ERK2,115%
same,remaining activity at 100 µM,ERK2,112%
same,remaining activity at 1 µM,ULK2,111%
same,remaining activity at 100 µM,ULK2,119%
same,remaining activity at 1 µM,PRK2,102%
same,remaining activity at 100 µM,PRK2,101%
same,remaining activity at 1 µM,ASK1,114%
same,remaining activity at 100 µM,ASK1,131%
"COc1ccc2sc(-c3cncc(N)c3)nc2c1 [compound 1, 5-(5-Methoxybenzo[d]thiazol-2-yl)pyridin-3-amine]",Remaining protein kinase activity,CK1γ2; 1 μM,108%
same,Remaining protein kinase activity,CK1γ2; 100 μM,24%
same,Remaining protein kinase activity,JNK3; 1 μM,125%
same,Remaining protein kinase activity,JNK3; 100 μM,61%
same,remaining activity at 1 µM,"ERK2; ERK2, 1 μM",102%
same,remaining activity at 100 µM,"ERK2; ERK2, 100 μM",96%
same,remaining activity at 1 µM,"ULK2; ULK2, 1 μM",101%
same,remaining activity at 100 µM,"ULK2; ULK2, 100 μM",50%
same,remaining activity at 1 µM,"PRK2; PRK2, 1 μM",103%
same,remaining activity at 100 µM,"PRK2; PRK2, 100 μM",74%
same,remaining activity at 1 µM,"ASK1; ASK1, 1 μM",116%
same,remaining activity at 100 µM,"ASK1; ASK1, 100 μM",150%
